Data on three compounds can be found in patent publication US10668000B2, “Peptides, compositions comprising them and uses in particular cosmetic uses” (SEDERMA, priority 2014, dated 2020).

The test system of one assay is Collagen IV. The assay is described as follows: ELISA assay of collagen IV synthesis in normal human fibroblasts. The class given is cell-based. As to conditions: NHF, 72 h. On the procedure: (§1) Normal human fibroblasts (NHF) in culture are contacted with the products to be tested or their excipient (negative control) for 72 h. After the contact, the culture supernatants are removed and the synthesis of dermal macromolecules are estimated by ELISA assays. An estimation of cell viability is performed by Hoechst assay and used to weight the obtained data.
Background: An ELISA detects its analyte on a solid surface through an enzyme-linked reagent.

Another assay has as its system Ceramide 2. The assay can be described thus: Ceramide 2 immunolabeling in keratinocytes. To be noted: for Ceramide 2 % variation: immunolabeling, human keratinocytes. The class given is cell-based, human. From the text: (§2) Human keratinocytes are brought to just confluence in KSFMc medium. The contact with the actives and therefore their evaluation is then done in KSFMc medium alone or with calcium (0.8 mm)*. Visual evaluation of differentiation takes place after several days of contact (2, 4, 8 days/3, 5 and 7 for example). * Calcium differentiation allows the creation of link structure between the cells which leads to a better attachment of the basal layers.
(§3) On the same cultures as those presented before, immunolabeling of filaggrin 1 and ceramides are realised on layers fixed with specific antibodies. Quantification by image analysis is used to estimate the synthesis of these targets in keratinocytes. A counter-colouration of the nucleus using Hoechst dye is used to weight the obtained data.

Assay [1] relates to Elastin. The assay is described as follows: Immunofluorescence dosage of elastin in normal human fibroblasts. Format: cell-based. As to conditions: NHF, 14 days. On the procedure: (§4) Normal human fibroblasts (NHF) are cultured for 24 h. The cells are contacted or not with the products to be tested or their excipient at various concentrations for 6 days for the collagen I or 14 days for elastin (DMEMc 5% FCS). The synthesis of collagen I and elastin produced by the cells in the form of extracellular matrix is then quantified by immuno-marking on the fixed layers. A counting of the nuclei labeled with Hoechst is performed in parallel in order to have an estimate of the viability and in order to weight the data.

A further assay deals with Laminin. The assay is described as follows: ELISA assay of laminin synthesis in normal human fibroblasts. Format: cell-based. To be noted: NHF, 72 h. As for the experimental part: as §1
Assay [2] has as its system Collagen I. The assay is described as follows: Immunofluorescence dosage of collagen I in normal human fibroblasts. Format: cell-based. As to conditions: NHF, 6 days. As for the experimental part: as §4
The subject of assay [3] is Elastin. The assay is described as follows: ELISA assay of elastin synthesis in normal human fibroblasts. Format: cell-based. To be noted: NHF, 72 h. As for the experimental part:
as §1

In another assay the test system is filaggrin 1. The assay is described as follows: Filaggrin 1 immunolabeling in keratinocytes. Format: cell-based, human. To be noted: for Filagrin 1 % variation: immunolabeling, human keratinocytes.
Excerpt: as §2, §3

Assay [4] deals with Collagen I. The assay is described as follows: ELISA assay of collagen I synthesis in normal human fibroblasts. Format: cell-based. To be noted: NHF, 72 h. On the procedure: as §1
A further assay has as its system Fibronectin. The assay can be described thus: ELISA assay of fibronectin synthesis in normal human fibroblasts. Format: cell-based. As to conditions: NHF, 72 h. As for the experimental part:
as §1

A further assay deals with neutral lipids. The assay can be described thus: Marking of neutral lipids with red oil in keratinocytes. Format: cell-based, human. As to conditions: for Neutral lipids % variation: red oil marking, human keratinocytes.
Excerpt: as §2
On the same cultures as presented before, a marking of neutral lipids with red oil is realised on the fixed layers. Quantification by image analysis is used to estimate lipid synthesis in keratinocytes. A counter-colouration of the nucleus using Hoechst dye is used to weight the obtained data.

The next assay has as its system collagen. As to conditions: cited from earlier work.
Where [5] appears, read: at the level of the differentiation networks.

Like-named read-outs stand apart in the source and are kept apart here. Where a SMILES comes first, the peptide text is derived from it. The star is where a group is joined. Myristoyl = CCCCCCCCCCCCCC(=O)*

On to `CCCCCCCCCCCCCC(=O)N1CCC[C@H]1C(=O)N1CCC[C@H]1C(=O)N[C@@H](CC(C)C)C(=O)O` [Myr-PPL-OH, myristoyl-prolyl-prolyl-leucine] (Myristoyl-Pro-Pro-Leu-OH), for which the “Collagen IV % change/control” value in the assay with Collagen IV (1 ppm) is recorded as “+38%”; in the assay on Collagen IV (3 ppm), “+51%”; with Collagen IV (5 ppm) it was “+83%”; in the assay on Collagen IV (7 ppm) it was “+159%”. Besides, the “Ceramide 2 % variation” value in the assay on Ceramide 2 (2 ppm) is on record as “+137 (nsd) %”; in the assay on Ceramide 2 (4 ppm), “+240 (p < 0.01) %”; in the assay on Ceramide 2 (6 ppm), “+268 (p < 0.01) %”. The “ceramides in the human keratinocytes” value with Ceramide 2 (setting [5]) is listed as “increases”. In addition, the Elastin % change/control result with Elastin [1] (2 ppm) was “+183%”; in the assay with Elastin [1] (3 ppm), “+259%”; in the assay on Elastin [1] (7 ppm), “+145%”; in the assay with Elastin [3] (5 ppm) it was “+86%”; in the assay on Elastin [3] (7 ppm), “+137%”. For the same compound, the Laminin % change/control result is “+29%” with Laminin (1 ppm), “+83%” with Laminin (3 ppm), “+53%” with Laminin (5 ppm) and “+41%” in the assay with Laminin (7 ppm). In addition, the “Collagen I % change/control” value was “+68%” with Collagen I [2] (3 ppm); “+95%” with Collagen I [2] (7 ppm); “+34%” in the assay on Collagen I [4] (1 ppm); “+59%” with Collagen I [4] (3 ppm); “+87%” in the assay with Collagen I [4] (5 ppm). For the same compound, the entries for the “Filagrin 1 % variation” value in the assay on filaggrin 1 (2 ppm), in the assay with filaggrin 1 (4 ppm) and in the assay with filaggrin 1 (6 ppm) were “+564 (p < 0.01) %”, “+840 (p < 0.01) %” and “+172 (p < 0.01) %”, respectively. Moreover, the “filaggrin 1 in the human keratinocytes” value with filaggrin 1 (setting [5]) is “increases”. The Fibronectin % change/control result with Fibronectin (3 ppm) was “+73%”; in the assay on Fibronectin (5 ppm), “+41%”; with Fibronectin (7 ppm), “+66%”. The “Neutral lipids % variation” value is on record as “+394 (p < 0.01) %” in the assay with neutral lipids (4 ppm) and “+570 (p < 0.01) %” with neutral lipids (6 ppm). The “neutral lipids in the human keratinocytes” value in the assay on neutral lipids (setting [5]) is listed as “increases”.
For “Asn-Ile-Pro-Pro-Leu (NIPPL) [pentapeptide of WO 2010/071132 derived from fermented milk]”, the “collagen production by fibroblastes with regard to the control” value with collagen (concentration of about 55 ppm) was “about +30%”.
Consider “Ile-Pro-Pro-Leu (IPPL) [tetrapeptide of WO 2010/071132 derived from fermented milk]”, for which the “collagen production by fibroblastes with regard to the control” value with collagen (concentration of about 44 ppm) was “about +10%”.
